This is an account of results in PubChem BioAssay (NCI).

Holding throughout (test): NCI-60 cell line screen, 48 h
Assay [1] relates to A498 renal.
The test system of assay [2] is MOLT-4 leukemia.
Assay [3] concerns RPMI-8226 leukemia.
Assay [4] relates to COLO 205 colon.
Assay [5] has as its system SK-MEL-28 melanoma.
The subject of assay [6] is HL-60(TB) leukemia.
For assay [7], the system named is SNB-19 CNS.
Assay [8] concerns NCI-H226 lung.
The subject of assay [9] is MDA-MB-231 breast.
The subject of assay [10] is SR leukemia.
The test system of assay [11] is CAKI-1 renal.
The test system of assay [12] is OVCAR-5 ovarian.
The subject of assay [13] is HOP-62 NSCLC.
Assay [14] relates to LOX IMVI melanoma.
Assay [15] relates to HCT-116 colon.
The test system of assay [16] is UACC-257 melanoma.
Assay [17] relates to PC-3 prostate.
In assay [18] the test system is IGROV1 ovarian.
Assay [19] concerns EKVX NSCLC.
Assay [20] has as its system K-562 leukemia.

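Step 1: Grow cells in 96-well plates. Step 2: Expose to compound for 48 hours at 5 concentrations. Step 3: Interpolate endpoints linearly; if unreached, use highest concentration. TGI: concentration producing complete growth inhibition.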

On to `O=C1CC2(CCN(CC3COc4ccccc4O3)CC2)C(=O)N1N1CCCCCC1` (stereo not given), for which the TGI in assay [1] is > 100 µM; in assay [2] it was 63.6 µM; in assay [3], > 100 µM; in assay [4] it was > 100 µM; in assay [5], > 100 µM; in [6] it was > 100 µM. Also, the TGI in assay [7], in assay [8], in assay [9], in assay [10], in [11] and in [12] was > 100 µM in each case. The TGI in assay [13], in assay [14], in assay [15], in assay [16], in assay [17] and in assay [18] was > 100 µM each time. Besides, the TGI in assay [19] and in [20] was > 100 µM in each case.

Take `O=c1[nH]c(=S)n(-c2cccc3ccccc23)c(O)c1/C=C1\C=Nc2ccccc21`: the TGI in [1] turned out to be 4.25 µM; in [2] it was 5.02 µM; in [3] it was 4.96 µM; in [4], 3.4 µM; in assay [5] it was 6.06 µM; in assay [6], 5.27 µM. The TGI in assay [7] was determined as 11.3 µM; in assay [8], 5.8 µM; in [9] it was 5.14 µM; in [10] it was 4.04 µM; in [11] it was 8.65 µM; in assay [12], 5.47 µM. Besides, the TGI in assay [13] is 10.7 µM; in assay [14] it was 3.81 µM; in assay [15], 4.55 µM; in [16], 5.51 µM; in assay [17], 6.74 µM; in assay [18], 4.76 µM. The TGI was found to be 5.38 µM in assay [19] and 7.11 µM in [20].

As for `O=C1CC(C(O)C(O)C(O)CO)CC(=O)N1` (stereo not given), the TGI in assay [1], in assay [2], in [3], in [4], in [5] and in assay [6] was > 100 µM in each case. In addition, the TGI in assay [7], in assay [8], in assay [9], in assay [10], in assay [11] and in [12] was > 100 µM in each case. Further, the TGI in assay [13], in [14], in assay [15], in assay [16], in [17] and in [18] was > 100 µM throughout. Moreover, the TGI in assay [19] and in assay [20] was > 100 µM throughout.

Consider `Cc1cc(C)c(-n2c(C)c(C)c(C#N)c2N)c(C)c1`, for which the TGI is 97.1 µM in [1]; 68.5 µM in assay [2]; 54.6 µM in [3]; 38.9 µM in assay [4]; > 100 µM in [5]; 37 µM in assay [6]. The TGI in assay [7] is > 100 µM; in [8], > 100 µM; in [9], > 100 µM; in assay [10] it was 38.4 µM; in assay [11] it was > 100 µM; in assay [12], > 100 µM. Moreover, the TGI in [13] was > 100 µM; in assay [14], 40.8 µM; in [15], 48.9 µM; in [16], 60.8 µM; in [17], 89 µM; in assay [18], > 100 µM. For the same compound, the TGI in assay [19] was determined as 87.6 µM; in assay [20] it was 78.5 µM.

Turning to `CCCCCCCCCCCCCCCCCCNc1ccn(C2OC(COP(=O)(O)OCC(COP(=O)(O)OCC3OC(n4cc(C)c(=O)[nH]c4=O)CC3N=[N+]=[N-])OCCCCCCCCCCCCCCCCCC)C(O)C2O)c(=O)n1` (stereo not given), the TGI in assay [1], in assay [2], in assay [3], in assay [4], in assay [5] and in assay [6] was > 100 µM throughout. Further, the TGI in assay [7] was 50.5 µM; in assay [8], > 100 µM; in assay [9] it was > 100 µM; in [10], > 100 µM; in assay [11] it was > 100 µM; in assay [12], > 100 µM. Besides, the TGI in [13] was > 100 µM; in assay [14], 54.2 µM; in assay [15], > 100 µM; in assay [16], > 100 µM; in [17] it was > 100 µM; in assay [18] it was > 100 µM. Moreover, the TGI in [19] and in assay [20] was > 100 µM throughout.

Regarding `Clc1ccc(/C=c2\nc(-c3ccccc3)n3c2nc2ccccc23)cc1`, the TGI in [1] is > 100 µM; in [2] it was > 100 µM; in [3], > 100 µM; in assay [4] it was > 100 µM; in [5], 0.952 µM; in [6], > 100 µM. Further, the TGI in assay [7], in assay [8], in [9], in assay [10], in assay [11] and in assay [12] was > 100 µM each time. Further, the TGI in [13] was > 100 µM; in assay [14], > 100 µM; in assay [15] it was > 100 µM; in [16], > 100 µM; in [17], 87.8 µM; in assay [18] it was > 100 µM. In addition, the TGI in assay [19] is 71.4 µM; in assay [20] it was > 100 µM.

Take `Nc1nc(N)c2c(CCc3ccc(C(=O)N[C@@H](CCC(=O)O)C(=O)O)cc3)ccnc2n1`: the TGI in [1], in [2], in [3], in assay [4], in assay [5] and in assay [6] was > 100 µM throughout. In addition, the TGI in [7], in [8], in [9], in assay [10], in [11] and in assay [12] was > 100 µM throughout. The TGI in assay [13], in [14], in assay [15], in assay [16], in assay [17] and in assay [18] was > 100 µM throughout. Besides, the TGI in assay [19] and in assay [20] was > 100 µM throughout.
